Laboratory results from paper PMC7615656 (European journal of pharmacology, 2010).

Assays:
[1] = target: recombinant rat α1β3γ2 receptors (Rattus norvegicus, UniProt P18508+P62813); assay: Two-electrode voltage clamp of GABA-induced chloride currents in Xenopus oocytes; assay type: cell-based; details: for efficacy (% GABA EC3): α1β3γ2, ns = not significant
[2] = target: recombinant rat α1β3γ2F77I receptors (Rattus norvegicus, UniProt P18508+P62813, F115I); assay: as above; assay type: cell-based; details: for efficacy (% GABA EC3): ns = not significant
[3] = target: recombinant rat α2β3γ2 receptors (Rattus norvegicus, UniProt P18508+P23576); assay: as above; assay type: cell-based; details: α2β3γ2; for efficacy (% GABA EC3): ns = not significant
[4] = target: recombinant rat α2β3γ2F77I receptors (Rattus norvegicus, UniProt P18508+P23576, F115I); assay: as above; assay type: cell-based; details: for efficacy (% GABA EC3): ns = not significant
[5] = target: recombinant rat α3β3γ2 receptors (Rattus norvegicus, UniProt P18508+P20236); assay: as above; assay type: cell-based; details: for efficacy (% GABA EC3): α3β3γ2, ns = not significant
[6] = target: recombinant rat α3β3γ2F77I receptors (Rattus norvegicus, UniProt P18508+P20236, F115I); assay: as above; assay type: cell-based; details: for efficacy (% GABA EC3): ns = not significant
[7] = target: recombinant rat α4β3γ2 receptors (Rattus norvegicus, UniProt P18508+P28471); assay: as above; assay type: cell-based; details: α4β3γ2; for efficacy (% GABA EC3): ns = not significant; for maximal effect on GABA-induced chloride flux (GABA EC3), % of control current: control current = 100%
[8] = target: recombinant rat α5β3γ2 receptors (Rattus norvegicus, UniProt P18508+P19969); assay: as above; assay type: cell-based; details: for efficacy (% GABA EC3): α5β3γ2, ns = not significant
[9] = target: recombinant rat α5β3γ2F77I receptors (Rattus norvegicus, UniProt P18508+P19969, F115I); assay: as above; assay type: cell-based; details: for efficacy (% GABA EC3): ns = not significant
[10] = target: recombinant rat α6β3γ2 receptors (Rattus norvegicus, UniProt P18508+P30191); assay: as above; assay type: cell-based; details: α6β3γ2; for efficacy (% GABA EC3): ns = not significant; for maximal effect on GABA-induced chloride flux (GABA EC3), % of control current: control current = 100%
[11] = tested on: GABAA receptors containing the γ2F77I mutation; assay: Modulation of GABA EC3 in receptors containing the γ2F77I mutation; assay type: cell-based, rat; details: GABAA receptors containing the γ2F77I mutation
[12] = read-out: efficacy (% GABA EC3)

Sequence of recombinant rat α3β3γ2F77I receptors (P20236 29-493): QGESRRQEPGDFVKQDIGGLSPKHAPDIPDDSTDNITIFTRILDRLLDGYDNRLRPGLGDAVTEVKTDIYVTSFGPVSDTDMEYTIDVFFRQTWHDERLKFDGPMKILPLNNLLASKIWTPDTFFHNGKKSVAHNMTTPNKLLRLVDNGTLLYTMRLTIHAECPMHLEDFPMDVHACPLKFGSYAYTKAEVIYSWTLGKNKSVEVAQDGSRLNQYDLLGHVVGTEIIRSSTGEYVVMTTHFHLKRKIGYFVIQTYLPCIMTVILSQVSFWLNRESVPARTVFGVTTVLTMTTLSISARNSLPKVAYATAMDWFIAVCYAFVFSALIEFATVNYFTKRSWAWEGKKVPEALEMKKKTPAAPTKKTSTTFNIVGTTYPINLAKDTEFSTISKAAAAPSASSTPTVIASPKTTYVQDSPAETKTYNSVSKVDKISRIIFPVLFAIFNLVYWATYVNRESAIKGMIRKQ
Sequence of recombinant rat α3β3γ2F77I receptors (P63079 26-473 partner): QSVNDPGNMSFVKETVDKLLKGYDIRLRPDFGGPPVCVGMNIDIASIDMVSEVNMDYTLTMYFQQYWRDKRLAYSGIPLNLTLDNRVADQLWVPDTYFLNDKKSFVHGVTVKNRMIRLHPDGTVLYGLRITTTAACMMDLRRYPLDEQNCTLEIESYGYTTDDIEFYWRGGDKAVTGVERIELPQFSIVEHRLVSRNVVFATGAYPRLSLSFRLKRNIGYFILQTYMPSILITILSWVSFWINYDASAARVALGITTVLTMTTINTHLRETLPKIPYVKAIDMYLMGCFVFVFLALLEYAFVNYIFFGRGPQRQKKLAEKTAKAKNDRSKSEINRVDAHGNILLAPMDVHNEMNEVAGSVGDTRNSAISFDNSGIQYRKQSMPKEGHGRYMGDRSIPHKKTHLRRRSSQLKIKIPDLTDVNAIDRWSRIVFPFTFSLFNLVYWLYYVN
Sequence of recombinant rat α3β3γ2F77I receptors (P18508 39-466 F115I): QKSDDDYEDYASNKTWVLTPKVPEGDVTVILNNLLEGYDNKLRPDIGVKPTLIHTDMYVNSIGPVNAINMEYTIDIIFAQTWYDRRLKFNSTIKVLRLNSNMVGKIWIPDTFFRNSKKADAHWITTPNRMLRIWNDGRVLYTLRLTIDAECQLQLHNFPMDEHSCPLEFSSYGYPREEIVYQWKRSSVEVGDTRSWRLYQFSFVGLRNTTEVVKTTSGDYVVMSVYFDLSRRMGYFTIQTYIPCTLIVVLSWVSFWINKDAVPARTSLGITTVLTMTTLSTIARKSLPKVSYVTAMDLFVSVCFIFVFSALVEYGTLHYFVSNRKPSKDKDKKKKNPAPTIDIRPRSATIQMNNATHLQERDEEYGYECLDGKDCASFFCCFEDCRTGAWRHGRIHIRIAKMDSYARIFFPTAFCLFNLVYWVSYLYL
Sequence of recombinant rat α3β3γ2 receptors (P20236 29-493): as the sequence (P20236 29-493) above
Sequence of recombinant rat α3β3γ2 receptors (P63079 26-473 partner): as the sequence (P63079 26-473 partner) above
Sequence of recombinant rat α3β3γ2 receptors (P18508 39-466): as the sequence (P18508 39-466 F115I) above, with I77F counted along it
Sequence of recombinant rat α5β3γ2 receptors (P19969 32-464 limits assumed): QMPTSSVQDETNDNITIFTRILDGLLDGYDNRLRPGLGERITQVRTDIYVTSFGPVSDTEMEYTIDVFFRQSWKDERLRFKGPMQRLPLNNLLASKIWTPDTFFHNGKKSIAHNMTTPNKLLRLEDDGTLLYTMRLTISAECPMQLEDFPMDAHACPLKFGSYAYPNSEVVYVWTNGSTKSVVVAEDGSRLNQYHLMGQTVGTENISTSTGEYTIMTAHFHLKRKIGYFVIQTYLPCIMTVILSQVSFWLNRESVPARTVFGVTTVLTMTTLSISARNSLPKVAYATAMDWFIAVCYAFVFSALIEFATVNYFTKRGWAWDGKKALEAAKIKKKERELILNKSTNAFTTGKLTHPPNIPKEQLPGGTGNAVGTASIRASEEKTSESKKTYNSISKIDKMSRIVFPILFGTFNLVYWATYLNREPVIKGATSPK
Sequence of recombinant rat α5β3γ2 receptors (P63079 26-473 partner): as the sequence (P63079 26-473 partner) above
Sequence of recombinant rat α5β3γ2 receptors (P18508 39-466): as the sequence (P18508 39-466 F115I) above, with I77F counted along it

With `CN1C(=O)CN=C(c2ccccc2)c2cc(Cl)ccc21` [Diazepam, 7-chloro-1,3-dihydro-1-methyl-5-phenyl-2H-1,4-benzodiazepin-2-one] the “efficacy (% GABA EC3)” value ([1]; 100 nM) was 239 ± 23 % GABA EC3, the “efficacy (% GABA EC3)” value ([1]; 1 μM) was 314 ± 29 % GABA EC3 and the “efficacy (% GABA EC3)” value ([1]; 10 μM) was 324 ± 22 % GABA EC3. For the same molecule, the “efficacy (% GABA EC3)” value ([2]; 100 nM, α1β3γ2F77I) was 162 ± 17 % GABA EC3, the “efficacy (% GABA EC3)” value ([2]; 1 μM, α1β3γ2F77I) was 220 ± 21 % GABA EC3 and the “efficacy (% GABA EC3)” value ([2]; 10 μM, α1β3γ2F77I) was 229 ± 26 % GABA EC3. For the same molecule, the “efficacy for enhancing GABA EC3 in receptors containing the γ2F77I mutation” value (from here on “efficacy for enhancing GABA EC3”) ([2]; α1β3γ2F77I) was 229 ± 26%, the “efficacy (% GABA EC3)” value ([3]; 100 nM) was 426 ± 22 % GABA EC3 and the “efficacy (% GABA EC3)” value ([3]; 1 μM) was 536 ± 26 % GABA EC3. For the same molecule, the “efficacy (% GABA EC3)” value ([3]; 10 μM) was 532 ± 20 % GABA EC3, the “efficacy (% GABA EC3)” value ([4]; 100 nM, α2β3γ2F77I) was 181 ± 1 % GABA EC3 and the “efficacy (% GABA EC3)” value ([4]; 1 μM, α2β3γ2F77I) was 265 ± 4 % GABA EC3. For the same molecule, the “efficacy (% GABA EC3)” value ([4]; 10 μM, α2β3γ2F77I) was 278 ± 6 % GABA EC3, the “efficacy for enhancing GABA EC3” value ([4]; α2β3γ2F77I) was 278 ± 6% and the “efficacy (% GABA EC3)” value ([5]; 100 nM) was 437 ± 32 % GABA EC3. For the same molecule, the “efficacy (% GABA EC3)” value ([5]; 1 μM) was 752 ± 48 % GABA EC3, the “efficacy (% GABA EC3)” value ([5]; 10 μM) was 738 ± 36 % GABA EC3 and the “efficacy (% GABA EC3)” value ([6]; 100 nM, α3β3γ2F77I) was 166 ± 17 % GABA EC3. For the same molecule, the “efficacy (% GABA EC3)” value ([6]; 1 μM, α3β3γ2F77I) was 263 ± 39 % GABA EC3, the “efficacy (% GABA EC3)” value ([6]; 10 μM, α3β3γ2F77I) was 272 ± 36 % GABA EC3 and the “efficacy for enhancing GABA EC3” value ([6]; α3β3γ2F77I) was 272 ± 36%. The “efficacy (% GABA EC3)” value ([7]; 1 μM) was “ns”, the “efficacy (% GABA EC3)” value ([7]; 10 μM) was “ns” and the “maximal effect on GABA-induced chloride flux (GABA EC3), % of control current” value (shortened to “maximal effect … % of control current”) [7] was “did not stimulate”. For the same molecule, the “efficacy (% GABA EC3)” value ([8]; 100 nM) was 274 ± 16 % GABA EC3, the “efficacy (% GABA EC3)” value ([8]; 1 μM) was 342 ± 21 % GABA EC3 and the “efficacy (% GABA EC3)” value ([8]; 10 μM) was 321 ± 14 % GABA EC3. For the same molecule, the “efficacy (% GABA EC3)” value ([9]; 100 nM, α5β3γ2F77I) was 135 ± 7 % GABA EC3, the “efficacy (% GABA EC3)” value ([9]; 1 μM, α5β3γ2F77I) was 170 ± 4 % GABA EC3 and the “efficacy (% GABA EC3)” value ([9]; 10 μM, α5β3γ2F77I) was 154 ± 2 % GABA EC3. For the same molecule, the “efficacy for enhancing GABA EC3” value ([9]; α5β3γ2F77I) was 154 ± 2%, the “efficacy (% GABA EC3)” value ([10]; 1 μM) was “ns” and the “efficacy (% GABA EC3)” value ([10]; 10 μM) was “ns”. The “maximal effect … % of control current” value [10] was “did not stimulate”.
With `CNC(=O)c1cc2c(cn1)[nH]c1ccccc12` [FG7142, N-methyl-β-carboline-3-carboxamide] the “efficacy (% GABA EC3)” value ([1]; 100 nM) was “ns”, the activity at 1 µM [1, 12] was 88 ± 5% and the activity at 10 µM [1, 12] was 92 ± 4%. The activity at 0.1 µM [2, 12] was 107 ± 1%, the activity at 1 µM [2, 12] was 111 ± 1% and the activity at 10 µM [2, 12] was 124 ± 3%. The “efficacy (% GABA EC3)” value ([3]; 100 nM) was “ns”, the “efficacy (% GABA EC3)” value ([3]; 1 μM) was “ns” and the “efficacy (% GABA EC3)” value ([3]; 10 μM) was “ns”. For the same molecule, the “maximal effect … % of control current” value ([3]; control current = 100%) was “the reduction was not significant”, the “efficacy (% GABA EC3)” value ([4]; 100 nM, α2β3γ2F77I) was “ns” and the “efficacy (% GABA EC3)” value ([4]; 1 μM, α2β3γ2F77I) was “ns”. For the same molecule, the activity at 10 µM [4, 12] was 117 ± 4%, the “efficacy (% GABA EC3)” value ([5]; 100 nM) was “ns” and the activity at 1 µM [5, 12] was 95 ± 2%. The activity at 10 µM [5, 12] was 91 ± 2%, the “efficacy (% GABA EC3)” value ([6]; 100 nM, α3β3γ2F77I) was “ns” and the activity at 1 µM [6, 12] was 115 ± 5%. For the same molecule, the activity at 10 µM [6, 12] was 126 ± 6%, the “efficacy (% GABA EC3)” value ([7]; 100 nM) was “ns” and the “efficacy (% GABA EC3)” value ([7]; 1 μM) was “ns”. For the same molecule, the “efficacy (% GABA EC3)” value ([7]; 10 μM) was “ns”, the “maximal effect … % of control current” value [7] was “did not significantly influence” and the “efficacy (% GABA EC3)” value ([8]; 100 nM) was “ns”. The “efficacy (% GABA EC3)” value ([8]; 1 μM) was “ns”, the activity at 10 µM [8, 12] was 84 ± 5% and the activity at 0.1 µM [9, 12] was 111 ± 2%. For the same molecule, the activity at 1 µM [9, 12] was 112 ± 4%, the activity at 10 µM [9, 12] was 122 ± 4% and the “efficacy (% GABA EC3)” value ([10]; 100 nM) was “ns”. The “efficacy (% GABA EC3)” value ([10]; 1 μM) was “ns”, the “efficacy (% GABA EC3)” value ([10]; 10 μM) was “ns” and the “maximal effect … % of control current” value [10] was “did not significantly influence”. The “maximum stimulation of the GABA-induced current” value [11] was 126 ± 6%.
